Measurements published in patent publication US10150765B2, “P2X7 modulators” (Janssen Pharmaceutica NV, priority 2013, dated 2018).

Target: P2X7 (Homo sapiens (Human), UniProt Q99572)
Test: P2X7 antagonism in human PBMCs (LPS + Bz-ATP induced IL-1β release, ELISA)
Format: cell-based
Conditions: 10 μM compound, LPS 30 ng/ml + 0.5 mM Bz-ATP
Description: Human blood was collected using a blood donor program. PBMCs were isolated from blood using a Ficoll density gradient technique. Briefly, blood was laid on Ficoll solution and centrifuged at RT for 20 minutes at 2000 rpm. The buffy layer (between red blood cells and plasma) was carefully collected by aspiration, washed with PBS and centrifuged again at 1500 rpm for 15 minutes. The resulting cell pellet was washed and plated on 96 well-plates for experiments. […] Lipopolysaccharide (LPS) (30 ng/ml) was added to each well and incubated for 1 hour. Test compounds were then added and incubated for 30 minutes. The P2X7 agonist, 2′(3′)-O-(4-benzoylbenzoyl) adenosine 5′ triphosphate (Bz-ATP) was then added at a final concentration of 0.5 mM (PBMC) or 1 mM (blood). Cells were incubated for an additional 1.5 hours. At that point, supernatant was collected and stored for IL-1β assay using manufacturer's protocol for enzyme-linked immunosorbent assay (ELISA). Data was expressed as percent control, where control is defined as the difference in IL-1β release in LPS+Bz-ATP samples and LPS only samples. Data was plotted as response (% control) versus concentration to generate IC50 values.

P2X7, sequence (Q99572 whole entry): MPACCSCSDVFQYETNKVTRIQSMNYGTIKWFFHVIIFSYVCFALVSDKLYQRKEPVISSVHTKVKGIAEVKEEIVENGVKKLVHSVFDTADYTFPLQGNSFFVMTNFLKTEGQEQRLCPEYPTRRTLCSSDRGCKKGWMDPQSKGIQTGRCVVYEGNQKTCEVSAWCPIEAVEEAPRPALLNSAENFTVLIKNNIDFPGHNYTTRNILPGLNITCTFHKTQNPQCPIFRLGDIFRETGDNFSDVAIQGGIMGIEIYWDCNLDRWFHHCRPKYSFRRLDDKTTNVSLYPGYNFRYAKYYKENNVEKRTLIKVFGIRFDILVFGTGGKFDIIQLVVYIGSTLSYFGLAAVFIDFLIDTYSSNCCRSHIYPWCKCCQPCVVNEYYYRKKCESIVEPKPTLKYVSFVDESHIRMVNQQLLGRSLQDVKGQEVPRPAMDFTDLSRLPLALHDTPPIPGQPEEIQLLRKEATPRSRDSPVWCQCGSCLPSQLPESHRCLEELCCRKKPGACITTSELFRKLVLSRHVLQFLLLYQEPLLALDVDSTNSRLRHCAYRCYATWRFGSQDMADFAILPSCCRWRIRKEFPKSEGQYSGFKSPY

| Compound | PBMC 10 μM (% control) |
| --- | --- |
| CC1c2nn(COCC[Si](C)(C)C)c(-c3ncc(F)cn3)c2CCN1C(=O)c1cccc(C(F)(F)F)c1Cl (stereo not drawn) [Example 303, (2-chloro-3-(trifluoromethyl)phenyl)(3-(5-fluoropyrimidin-2-yl)-7-methyl-2-((2-(trimethylsilyl)ethoxy)methyl)-4,5-dihydro-2H-pyrazolo[3,4-c]pyridin-6(7H)-yl)methanone] | −1.6 % control |
| Cc1cc(C)nc(-n2nnc3c2CCN(C(=O)c2cccc(C(F)(F)F)c2Cl)C3C)n1 (stereo not drawn) [Example 253, (2-Chloro-3-(trifluoromethyl)phenyl)(1-(4,6-dimethylpyrimidin-2-yl)-4-methyl-6,7-dihydro-1H-[1,2,3]triazolo[4,5-c]pyridin-5(4H)-yl)methanone] | −2.6 % control |
| Cc1nc(-n2nnc3c2CCN(C(=O)c2cccc(C(F)(F)F)c2Cl)C3C)ncc1F (single isomer, unassigned) [Example 306, (S*)-(2-chloro-3-(trifluoromethyl)phenyl)(1-(5-fluoro-4-methylpyrimidin-2-yl)-4-methyl-6,7-dihydro-1H-[1,2,3]triazolo[4,5-c]pyridin-5(4H)-yl)methanone] | 2.5 % control |
| CC1c2nnn(-c3ncccn3)c2CCN1C(=O)c1ccc(Cl)cc1Cl (stereo not drawn) [Example 283, (2,4-dichlorophenyl)(4-methyl-1-(pyrimidin-2-yl)-6,7-dihydro-1H-[1,2,3]triazolo[4,5-c]pyridin-5(4H)-yl)methanone] | −6.3 % control |
| C[C@@H]1c2nnn(-c3ccc(F)cc3)c2C[C@H](C)N1C(=O)c1cccc(C(F)(F)F)c1Cl [Example 287, (2-chloro-3-(trifluoromethyl)phenyl)((4R,6 S)-1-(4-fluorophenyl)-4,6-dimethyl-6,7-dihydro-1H-[1,2,3]triazolo[4,5-c]pyridin-5(4H)-yl)methanone] | −4.1 % control |
| C[C@@H]1c2ncn(-c3ccccn3)c2CCN1C(=O)c1cccc(C(F)(F)F)c1F (single isomer, unassigned) [Example 42, (4R*)-5-{[2-Fluoro-3-(trifluoromethyl)phenyl]carbonyl}-4-methyl-1-pyridin-2-yl-4,5,6,7-tetrahydro-1H-imidazo[4,5-c]pyridine] | 5.8 % control |
